In US20220041627A1, “PRODRUGS OF ANTI-CANCER AND ANTI-AUTOIMMUNE DISEASES THERAPEUTIC AGENTS, AND METHODS OF MAKING AND USE THEREOF” (UNIVERSITY OF MARYLAND, BALTIMORE, priority 2018, published 2022):

What was measured:
[1] = tested on: wild-type C57BL/6 male mice; experiment: Acute toxicity in mice; assay type: in vivo; settings: 100 mg/kg i.p. every other day for 15 days, compared to vehicle group
Method: FIGS. 5A and 5B illustrate the survival rate (FIG. 5A) and body weight (FIG. 5B) curves of the various groups of mice. […] Mice were treated every other day by intraperitoneal (i.p.) injection for 15 days, the survival and body weights of the mice were recorded after treatment.
Mice were treated every other day by intraperitoneal (i.p.) injection for 15 days, the survival and body weights of the mice were recorded after treatment.

[2] = Cell viability (CCK8) in normal MEC1 cells; assay type: cell-based
Method: (§1) FIGS. 2A and 2B illustrate the anticancer effects and selectivity of 5-FU and compounds 1a-1c. Cell viability was analyzed after the breast cancer MCF7 cells (FIG. 2A) and normal MEC1 cells (FIG. 2B) were treated with 5-FU or compounds 1a-1c at different concentrations. Data are presented as mean±SD, n=4.
(§2) Cell Counting Kit-8 (CCK8, Dojingo) was used to carry out the cytotoxicity assessment of the prodrugs. Seeded cells were treated with varying compound concentrations for 48-72 h and the CCK8 kit was used to measure the cytotoxicity. For NAC experiments, this ROS scavenger was pre-incubated with the cells for 2 h and then co-incubated with the prodrugs for additional 48 hours unless otherwise noted.
(§3) The anticancer effects of new compounds 1a and 1b were tested using the breast cancer MCF7 cells and normal MEC1 cells (FIGS. 2A and 2B). […] These differential killing results highlight the specificity of new prodrugs 1a-1b for cancer cells over normal cells. […] To further verify the role of ROS in the drug release process, the MTT assays was performed, using MCF7 cells pretreated with the ROS scavenger N-Acetyl-Cysteine (NAC).

[3] = tested on: breast cancer MCF7 cells; experiment: Cell viability (CCK8) in breast cancer MCF7 cells; assay type: cell-based, human; settings: different concentrations, compared with parent drug 5-FU
Method: as §1, §2, §3

CC1(C)OB(c2ccc(Cn3cc(F)c(=O)[nH]c3=O)cc2)OC1(C)C [Compound 1a, 5-Fluoro-1-(4-(4,4,5,5-tetramethyl-1,3,2-dioxaborolan-2-yl)benzyl)pyrimidine-2,4(1H,3H)-dione]
body weights [1]: no obvious changes
viability at 100 µM [2]: > 95%
antiproliferative activity / anticancer effects [3]: comparable antiproliferative activity as that of the parent drug 5-FU
